Laboratory results from patent publication US11034692B1 (Genentech, Inc., priority 2017, dated 2021).

molecular target: HPK1; experiment: HPK1 Lantha Binding Assay ("Lanth"); settings: Table B1-1, read-out: HPK1 Ki (μM) (Lanth)
Method: HPK1 Lantha Binding Assay (“Lanth”)
The compounds to be tested were diluted by preparing 12.5 uL/well of 5 mM compound (100×) in columns 2 and 13 and 10 ul/well of DMSO in columns 3-12, 14-23, and wells A1-H1 and I24-P24 of the compound plate using a Bravo liquid handling platform. For the reference compound, the top concentration was 1 mM. To the plate was added 10 ul 2 mM staurosporine in wells J1-P1 and A24-H24. A 11 point 5-fold compound serial dilution was performed using the Bravo liquid handling platform. From the plate were transferred 2.5 ul of the solutions from column 2 and column 13 to the 10 ul of DMSO in columns 3 and 14 & so on. The compound plate was centrifuged at 2500 rpm for 1 min. From the compound plate was transferred 80 nl of the compounds into an assay plate using the Echo liquid handler system. One compound plate makes two assay plates. Each assay plate is sealed and stored in an N2 cabinet.
The following assay concentrations and times were used: 2 nM HPK1, 2 nM Eu-Anti-GST Ab, and 15 nM Tracer222, with 60 min incubation time.
III. HPK Lantha Binding Assay:
For the binding assay, 4 ul 2×HPK1 and Eu-anti-GST antibody were added to each well of the assay plate using a Multidrop reagent dispenser. The solutions were incubated in a 23 C incubator for 1 h. To each well of the assay plate was added 4 ul 2× Tracer-222 using a Multidrop reagent dispenser. The solutions were again incubated in a 23 C incubator for 1 h. The results of the assay were read using an Envision plate reader with the following parameters: TR_FRET, 340ex/615 and 665em; 100 usec Delay; and 200 usec integration.
Compound Ki was analyzed using Morrison ki fit model in XL-fit • a. fit=(1−((((E+x)+(Ki*(1+(S/Kd))))−(((((E+x)+(Ki*(1+(S/Kd))))[…])−((4*E)*x))^0.5))/(2*E))) • res=(y-fit) • b. Parameters: • E=enzyme concentration • S=Tracer222 concentration, Kd=Tracer222 Kd • All measurements reported using the same units (uM)
Exemplary compounds of Formula I or Ia were tested in the binding assays. The Ki data in Table B1-1 are based on the “Lanth” assay.

Ki [nM]	Structure (SMILES)
2.65	Cc1ccncc1-c1cc2cc(NC(=O)[C@@H]3[C@H](C)[C@H]3c3cnn(C)c3)ncc2c(N)n1 [Compound 329, (1R,2R,3R)—N-[8-amino-6-(4-methylpyridin-3-yl)-2,7-naphthyridin-3-yl]-2-methyl-3-(1-methyl-1H-pyrazol-4-yl)cyclopropane-1-carboxamide]
0.032	Cc1ccnc(-c2ccccc2)c1-c1cc2cc(NC(=O)[C@H]3C[C@@H]3c3cnn(C)c3)ncc2c(N)n1 [Compound 318, (1S,2S)—N-(8-amino-6-(4-methyl-2-phenylpyridin-3-yl)-2,7-naphthyridin-3-yl)-2-(1-methyl-1H-pyrazol-4-yl)cyclopropanecarboxamide]
0.02	Cc1ccncc1-c1nc(N)c2cnc(NC(=O)[C@H]3C[C@@H]3c3cn[nH]c3)cc2c1F [Compound 195, (1S,2S)—N-(8-amino-5-fluoro-6-(4-methylpyridin-3-yl)-2,7-naphthyridin-3-yl)-2-(1H-pyrazol-4-yl)cyclopropane-1-carboxamide]
14.9	CCc1ccncc1-c1cc2cc(NC(=O)CCC#N)ncc2c(N)n1 [Compound 28, N-[8-amino-6-(4-ethyl-3-pyridyl)-2,7-naphthyridin-3-yl]-3-cyano-propanamide]
1.82	Cc1ccc(O)cc1-c1cc2cc(NC(=O)[C@H]3C[C@@H]3c3cnn(C)c3)ncc2c(N)n1 [Compound 286, (1S,2S)—N-[8-amino-6-(5-hydroxy-2-methylphenyl)-2,7-naphthyridin-3-yl]-2-(1-methyl-1H-pyrazol-4-yl)cyclopropane-1-carboxamide]
40.2	CCc1ccncc1-c1cc2cc(NCc3ccn[nH]3)ncc2c(N)n1 [Compound 105, N6-((1H-pyrazol-5-yl)methyl)-3-(4-ethylpyridin-3-yl)-2,7-naphthyridine-1,6-diamine]
0.02	CC(=O)N1CC(n2cc(Nc3cc4cc(-c5cnccc5C)nc(N)c4cn3)cn2)C1 [Compound 161, 1-[3-[4-[[8-amino-6-(4-methyl-3-pyridyl)-2,7-naphthyridin-3-yl]amino]pyrazol-1-yl]azetidin-1-yl]ethanone]
1.75	CCc1ccncc1-c1cc2cc(NC(=O)NCc3cncs3)ncc2c(N)n1 [Compound 30, 1-[8-amino-6-(4-ethyl-3-pyridyl)-2,7-naphthyridin-3-yl]-3-(thiazol-5-ylmethyl)urea]
7.16	CNC(=O)Nc1cc2cc(-c3cnn(C)c3)nc(N)c2cn1 [Compound 9, 1-(8-amino-6-(1-methyl-1H-pyrazol-4-yl)-2,7-naphthyridin-3-yl)-3-methylurea]
0.3	CCc1ccncc1-c1cc2cc(Nc3cc(C)ncn3)ncc2c(N)n1 [Compound 80, 3-(4-Ethylpyridin-3-yl)-N6-(6-methylpyrimidin-4-yl)-[2,7]naphthyridine-1,6-diamine]
21.5	CCc1ccncc1-c1cc2cc(NC(=O)Cc3ccn[nH]3)ncc2c(N)n1 [Compound 102, N-(8-amino-6-(4-ethylpyridin-3-yl)-2,7-naphthyridin-3-yl)-2-(1H-pyrazol-5-yl)acetamide]
0.02	Cc1ccnc(-c2ccccc2)c1-c1cc2cc(NC(=O)[C@@H]3C[C@H]3c3cnn(C)c3)ncc2c(N)n1 [Compound 319, (1R,2R)—N-(8-amino-6-(4-methyl-2-phenylpyridin-3-yl)-2,7-naphthyridin-3-yl)-2-(1-methyl-1H-pyrazol-4-yl)cyclopropanecarboxamide]
1.2	CNC(=O)C(C)(C)n1cc(Nc2cc3cc(-c4cnccc4C)nc(N)c3cn2)cn1 [Compound 182, 2-[4-[[8-amino-6-(4-methyl-3-pyridyl)-2,7-naphthyridin-3-yl]amino]pyrazol-1-yl]-N,2-dimethyl-propanamide]
3.4	Cc1ccncc1-c1cc2cc(NC(=O)NC3CNC3)ncc2c(N)n1 [Compound 175, 1-(8-amino-6-(4-methylpyridin-3-yl)-2,7-naphthyridin-3-yl)-3-(azetidin-3-yl)urea]
